Literature values, collected in patent US20020155136A1, “MEDICINE CONTAINING YOHIMBINE AND ARGININE FOR TREATING ERECTILE DYSFUNCTION” (priority 1997, published 2002).

Tests used:
[1] = test system: impotence of psychogenic origin
erectile dysfunction = conditions: 2800 mg per day; Zorgniotti and Lizza 1994

SMILES | side effects observed ([1]; for relatively large doses, The Medical Letter 1995) | improvements, proportion of cases ([1]; impotence of psychogenic origin, published studies, results controversial) | favourable effect on erectile dysfunction, proportion of cases (erectile dysfunction)
COC(=O)[C@@H]1[C@H]2C[C@H]3c4[nH]c5ccccc5c4CCN3C[C@@H]2CC[C@@H]1O [yohimbine] | vertigo, anxiety, nervousness, headaches, insomnia and an increase in arterial pressure | 35 to 45 % of cases | –
N=C(N)NCCC[C@H](N)C(=O)O [L-arginine] | – | – | approximately 40 % of cases
